≈ marks a conversion by molar mass, not a printed value.
Tested on: Enterococcus faecalis
Test: Antibacterial activity against vancomycin-resistant Enterococcus faecalis after 16 hrs by microtiter plate assay
Format: functional

| Compound | MIC |
| --- | --- |
| CC(/C=C/C(O)=C1/C(=O)CNC1=O)=C\[C@@H](C)[C@H]1O[C@@]2(C)O[C@H](C(=O)[C@H]3O[C@]32C)[C@@H]1C [TIRANDAMYCIN A] | 2.25 µM (≈ 0.939 µg/mL) |
| CC(/C=C/C(O)=C1/C(=O)CNC1=O)=C\[C@@H](C)[C@H]1O[C@@]2(C)O[C@H](C(=O)[C@H]3O[C@]32CO)[C@@H]1C [TIRANDAMYCIN B] | 100 µM (≈ 43.3 µg/mL) |
| CC1=CC[C@H]2O[C@]1(C)O[C@H]([C@H](C)/C=C(C)/C=C/C(O)=C1/C(=O)CNC1=O)[C@H]2C [TIRANDAMYCIN C] | 110 µM (≈ 42.6 µg/mL) |
| CC1=CC(=O)[C@H]2O[C@]1(C)O[C@H]([C@H](C)/C=C(C)/C=C/C(O)=C1/C(=O)CNC1=O)[C@H]2C [TIRANDAMYCIN D] | > 9 µM |
